Series [1] relates to Klebsiella pneumoniae. Put plainly: In vivo antibacterial activity against Klebsiella pneumoniae ATCC 700603 infected in male Balb/c mouse lung infection model assessed as reduction in pulmonary bacterial load at 10 mg/kg, ip measured after 24 hrs (reference value: 3.05 x 10^9 CFU/g). It counts as functional.
In series [2] the test system is Staphylococcus aureus. Nature of the series: Synergistic antibacterial activity against Staphylococcus aureus assessed as fractional inhibitory concentration index in presence of bacitracin incubated for 18 hrs by checkerboard method. In kind it is functional.
For series [3], the system named is Pseudomonas aeruginosa. Nature of the series: Induction of drug resistance in Pseudomonas aeruginosa ATCC 27853 assessed as fold increase in MIC incubated for 24 hrs and measured under 40 passages. In kind it is functional.
Series [4] has as its system Staphylococcus aureus. Put plainly: Antibacterial activity against Staphylococcus aureus ATCC 25923 assessed as inhibition of bacterial growth incubated for 18 hrs by microbroth dilution assay. In kind it is functional.
The test system of series [5] is Staphylococcus aureus. Put plainly: Antibacterial activity against Staphylococcus aureus ATCC 25923 assessed as fold change in activity in presence of 2 mM CaCl2. In kind it is functional.
In series [6] the test system is Klebsiella pneumoniae. Nature of the series: Synergistic antibacterial activity against Klebsiella pneumoniae assessed as fractional inhibitory concentration index in presence of rifampin incubated for 18 hrs by checkerboard method. In kind it is functional.
Series [7] concerns Pseudomonas aeruginosa. Nature of the series: Synergistic antibacterial activity against Pseudomonas aeruginosa assessed as fractional inhibitory concentration index in presence of rifampin incubated for 18 hrs by checkerboard method. It counts as functional.
Series [8] relates to Staphylococcus aureus. Put plainly: Additive antibacterial activity against Staphylococcus aureus assessed as fractional inhibitory concentration index in presence of ciprofloxacin incubated for 18 hrs by checkerboard method. It counts as functional.
In series [9] the test system is Staphylococcus aureus. Nature of the series: Antibacterial activity against Staphylococcus aureus ATCC 25923 assessed as fold change in activity in presence of 1 mM MgCl2. It counts as functional.
In series [10] the test system is Pseudomonas aeruginosa. Nature of the series: Synergistic antibacterial activity against Pseudomonas aeruginosa assessed as fractional inhibitory concentration index in presence of imipenem incubated for 18 hrs by checkerboard method. It counts as functional.
Series [11] relates to Klebsiella pneumoniae. Put plainly: Antibacterial activity against Klebsiella pneumoniae ATCC 700603 assessed as inhibition of bacterial growth incubated for 18 hrs by microbroth dilution assay. In kind it is functional. Background: Dilution methods test growth across graded concentrations, often in twofold steps.
Series [12] deals with Klebsiella pneumoniae. Nature of the series: Bactericidal activity against Klebsiella pneumoniae ATCC 700603 assessed as bacterial eradication by measuring bacterial counts at 2 times MIC measured after 30 mins by Time killing assay relative to control. In kind it is functional. The note with it: 0.5 h.
The subject of series [13] is Escherichia coli. Nature of the series: Antibacterial activity against Escherichia coli ATCC 25922 assessed as inhibition of bacterial growth incubated for 18 hrs by microbroth dilution assay. In kind it is functional.
Series [14] deals with Escherichia coli. Nature of the series: Synergistic antibacterial activity against Escherichia coli assessed as fractional inhibitory concentration index in presence of kanamycin incubated for 18 hrs by checkerboard method. It counts as functional.
Series [15] relates to Staphylococcus aureus. Nature of the series: Antibacterial activity against Staphylococcus aureus ATCC 25923 assessed as fold decrease in presence of 150 mM NaCl. It counts as functional.
Series [16] concerns Escherichia coli. Nature of the series: Synergistic antibacterial activity against Escherichia coli assessed as fractional inhibitory concentration index in presence of rifampin incubated for 18 hrs by checkerboard method. It counts as functional.
The test system of series [17] is Klebsiella pneumoniae. Nature of the series: Additive antibacterial activity against Klebsiella pneumoniae assessed as fractional inhibitory concentration index in presence of kanamycin incubated for 18 hrs by checkerboard method. In kind it is functional.
Series [18] concerns Pseudomonas aeruginosa. Nature of the series: Synergistic antibacterial activity against Pseudomonas aeruginosa assessed as fractional inhibitory concentration index in presence of polymyxin B incubated for 18 hrs by checkerboard method. In kind it is functional.
For series [19], the system named is Staphylococcus epidermidis. Put plainly: Antibacterial activity against Staphylococcus epidermidis ATCC 12228 assessed as inhibition of bacterial growth incubated for 18 hrs by microbroth dilution assay. In kind it is functional.
The test system of series [20] is Pseudomonas aeruginosa. Nature of the series: Antibacterial activity against Pseudomonas aeruginosa ATCC 27853 assessed as inhibition of bacterial growth incubated for 18 hrs by microbroth dilution assay. It counts as functional.
In series [21] the test system is Klebsiella pneumoniae. Nature of the series: In vivo antibacterial activity against Klebsiella pneumoniae ATCC 700603 infected in male Balb/c mouse lung infection model assessed as reduction in pulmonary bacterial load at 5 mg/kg, ip measured after 24 hrs (reference value: 3.05 x 10^9 CFU/g). In kind it is functional.
For another series, the system named is Bacillus subtilis. Nature of the series: Antibacterial activity against Bacillus subtilis ATCC 23857 assessed as inhibition of bacterial growth incubated for 18 hrs by microbroth dilution assay. It counts as functional.
Series [22] is described as follows: Acute toxicity in male balb/c mouse assessed as inflammatory cell infiltration in lung administered intraperitoneally by H and E staining based analysis. In kind it is tissue-based. The note with it: in vivo, ip.
A short description of series [23]: Acute toxicity in male balb/c mouse assessed as respiratory depression by measuring tissue bleeding in lung administered intraperitoneally by H and E staining based analysis. The note with it: in vivo, ip.
The nature of series [24]: Acute toxicity in IP dosed male balb/c mouse assessed as animal death. It counts as organism-based. The note with it: in vivo.
Series [25] can be described thus: Acute toxicity in male balb/c mouse assessed as lethal dose at ip administration. The following applies: in vivo. In kind it is organism-based.
The nature of series [26]: Acute toxicity in male balb/c mouse assessed as alveolar shrinkage in lung administered intraperitoneally by H and E staining based analysis. It counts as tissue-based. The note with it: in vivo, ip.

Where a SMILES comes first, the peptide text is derived from it. Bridges are numbered along the chain shown (N, C = ends). [ ]: non-standard residue; d: D form. The star is where a group is joined. X1 = CC[C@H](C)CCCCC(=O)*; Dab = NCC[C@H](N)C(=O)O

As for `CC(C)CCCCC(=O)N[C@@H](CCN)C(=O)N[C@H](C(=O)N[C@@H](CCN)C(=O)N[C@H]1CCNC(=O)[C@H]([C@@H](C)O)NC(=O)[C@H](CCN)NC(=O)[C@H](CCN)NC(=O)[C@H](CC(C)C)NC(=O)[C@@H](Cc2ccccc2)NC(=O)[C@H](CCN)NC1=O)[C@@H](C)O.CC[C@H](C)CCCCC(=O)N[C@@H](CCN)C(=O)N[C@H](C(=O)N[C@@H](CCN)C(=O)N[C@H]1CCNC(=O)[C@H]([C@@H](C)O)NC(=O)[C@H](CCN)NC(=O)[C@H](CCN)NC(=O)[C@H](CC(C)C)NC(=O)[C@@H](Cc2ccccc2)NC(=O)[C@H](CCN)NC1=O)[C@@H](C)O` (X1-[Dab]T[Dab][Dab][Dab][dF]L[Dab][Dab]T; lactam 4-C) [listing 1 of 2 here], the results for the Activity in the series with Klebsiella pneumoniae [1], in the series with Klebsiella pneumoniae [12] and in the series with Klebsiella pneumoniae [21] were 2.46 10^8CFU/g, 100% and 1.48 10^8CFU/g, respectively. Besides, the “fractional inhibitory concentration index (FICI)” value in the series on Staphylococcus aureus [2] is 0.5; in the series with Klebsiella pneumoniae [6], 0.375; in the series on Pseudomonas aeruginosa [7], 0.313; in the series with Staphylococcus aureus [8], 0.75; with Pseudomonas aeruginosa [10] it was 0.313; in the series on Escherichia coli [14] it was 0.313. Further, the “fractional inhibitory concentration index (FICI)” value with Escherichia coli [16] is 0.313; with Klebsiella pneumoniae [17], 0.563; in the series on Pseudomonas aeruginosa [18] it was 0.188. Besides, the “fold change (FC)” value in the series with Pseudomonas aeruginosa [3] was 8; in the series on Staphylococcus aureus [5], -2; in the series on Staphylococcus aureus [9], -2; in the series with Staphylococcus aureus [15], -4. Further, the MIC (as a rule, the lowest concentration that inhibits growth of the organism) in the series with Staphylococcus aureus [4] is 8 µM; with Klebsiella pneumoniae [11] it was 2 µM; in the series with Escherichia coli [13], 2 µM; in [19] it was 8 µM; in the series on Pseudomonas aeruginosa [20], 2 µM; in the series with Bacillus subtilis it was 4 µM.

As for `CC(C)CCCCC(=O)N[C@@H](CCN)C(=O)N[C@H](C(=O)N[C@@H](CCN)C(=O)N[C@H]1CCNC(=O)[C@H]([C@@H](C)O)NC(=O)[C@H](CCN)NC(=O)[C@H](CCN)NC(=O)[C@H](CC(C)C)NC(=O)[C@@H](Cc2ccccc2)NC(=O)[C@H](CCN)NC1=O)[C@@H](C)O.CC[C@H](C)CCCCC(=O)N[C@@H](CCN)C(=O)N[C@H](C(=O)N[C@@H](CCN)C(=O)N[C@H]1CCNC(=O)[C@H]([C@@H](C)O)NC(=O)[C@H](CCN)NC(=O)[C@H](CCN)NC(=O)[C@H](CC(C)C)NC(=O)[C@@H](Cc2ccccc2)NC(=O)[C@H](CCN)NC1=O)[C@@H](C)O` (X1-[Dab]T[Dab][Dab][Dab][dF]L[Dab][Dab]T; lactam 4-C) [listing 2 of 2 here], the Activity result in series [22], in series [23], in series [24] and in [26] was “Toxic” in each case. Also, in [25], the LD50 (in general, the dose at which mortality reaches 50%) turned out to be 17.9 mg/kg.

These data come from ChEMBL document CHEMBL6087436, “The novel β-hairpin antimicrobial peptide D-G(RF)3 demonstrates exceptional antibacterial efficacy” (Eur J Med Chem, 2025).
